In patent US20180306790A1, “USE OF EB1 AS A BIOMARKER OF DRUG RESPONSE” (BASILEA PHARMACEUTICA INTERNATIONAL AG, priority 2015, published 2018):
Where two headings read alike, the source gives them in different places.

Tests used:
orthotopic GBM6 tumors [1] = assay: Orthotopic GBM6 xenografts, tumor volume by three-dimensional brain reconstruction; type: in vivo, mouse; details: 25 mg/kg i.v. days 30/33/36, day 45
Method: (§1) Approximately 100′000 cells of GBM6 GFP sh0 or shEB1 cells were stereotactically injected into the subventricular zone (0.5 mm anterior to bregma, −1 mm lateral, and −2.1 mm deep to the cortex surface) of 6-week-old athymic Nude mice. Grafted mice were intravenously treated with 25 mg/kg BAL101553 (three times at 30, 33 and 36 days after glioma implantation) or with vehicle (control). Forty five days after implantation, three animals of each group were sacrificed for analysis of tumor volumes (by three-dimensional brain reconstructions) or for FACS analysis.
For analysis of tumor volumes, mice were anesthetized and perfused with 4% paraformaldehyde. Brains were removed and fixed in 4% paraformaldehyde for 2 days at 4° C., then rinsed and conserved in PBS until dissection. Brains were entirely cut into 50-100-μm-thick sections using Vibratome (Leica) following the sagittal axis. A total of 60 sections per brain were obtained. Mapping and analysis of GFP-injected cells and tumors were performed by using a Leica DMLB fluorescence microscope, a Leica DC300F digital camera, and the Leica FW4000 imaging software (Leica). Three-dimensional brain reconstructions were obtained using FreeD software (Andrey P., Free-D: an integrated environment for three-dimensional reconstruction from serial sections. Journal of Neuroscience Methods. 2005; 145(1-2):233-244). […]

orthotopic GBM6 tumors [2] = assay: FACS analysis of A2B5 brain tumor cancer stem cells from orthotopic GBM6 tumors; type: in vivo, mouse; details: 25 mg/kg i.v. days 30/33/36, day 45
Method: as §1
After anesthesia, animals were perfused with PBS, and brains were removed and stored in HBSS buffer containing 2% FBS. Cells were dissociated in a cocktail of enzymes (DNase I (Roche, Rotkreuz, Switzerland), Collagenase D (Roche) and V (Sigma-Aldrich) with GentleMACS dissociator (Miltenyi Biotech)). The reaction was stopped by adding DMEM containing 10% FCS. The suspension was filtered and cells were resuspended in 40% Percoll (Sigma-Aldrich). After centrifugation, myelin was removed and cells were resuspended in HBSS buffer containing 2% FCS. Cells were incubated in HBSS containing 2% FCS with A2B5-APC and CD133-PE antibodies for 10 minutes. Cells were then fixed with 10% paraformaldehyde for 20 minutes and analyzed using flow cytometry. A total of 100′000 events were counted for each sample and data were recorded with the CellQuest Pro Software and analyzed using FlowJo software choosing the Dean-Jet-Fox model analysis.

GBM6 CSCs [3] = assay: Clonogenic survival assay; type: cell-based, human; details: 6 and 10 nM, 72 hours
Method: Cells were grown in previously poly-DL-ornithine (Sigma-Aldrich) coated 6-well plates (1000 cells/well) and after treatment for 72 hours with BAL27862, incubated for up to 5 days. Colonies were stained with 1% Crystal-violet solution in 20% methanol (Sigma-Aldrich). The colonies with more than 50 cells were counted. At least three independent experiments were performed.

GBM6 CSCs [4] = assay: Cytotoxic assay (sulforhodamine B growth inhibition, 72 hours); type: cell-based, human; details: at least three independent experiments, read-out: EC50 +/− SEM, cytotoxic activity
Method: (§2) Cells (5000 cells/well) were seeded in previously poly-DL-ornithine (Sigma-Aldrich) coated 96-well plates (10 μg/mL) and allowed to grow for 24 hours before treatment with BAL27862. Growth inhibition of cells was measured after 72 hours by using a sulforhodamine B assay kit (Sigma-Aldrich). Cell density was analyzed using a microplate reader (Labsystems Multiscan, Thermo, Villebon sur Yvette, France) and analysis of EC50 were performed with GraphPad 5.0 statistical software (GraphPad Software, La Jolla, USA). At least three independent experiments were performed.

GBM9 CSCs [5] = assay: as above; type: cell-based, human; details: at least three independent experiments, read-out: EC50 +/− SEM, cytotoxic activity
Method: as §2

GBM6 CSCs [6] = assay: Self-renewal capacity determination (sphere formation); type: cell-based, human; details: 6 nM, 72 hours
Method: GBM6 cells were seeded in previously poly-DL-ornithine (Sigma-Aldrich) coated 6-well plates (150′000 cells/well). After 24 hours, cells were treated or not with BAL27862 for 72 hours. At the end of treatment, the supernatant was removed and cells were harvested, dissociated into single cells and plated in 96-well plates (1-5 cells/well). Eight days later, the spheres were counted under an inverted light microscope (Leica DMI 4000B) (Leica, Saint Jorioz, France). Three independent experiments were performed.

GBM6 CSCs [7] = assay: FACS analysis of A2B5 positive GBM6 brain tumor CSCs in vitro; type: cell-based, human; details: 6 nM, 72 hours
Method: GBM6 cells were seeded at 300′000 cells/well into poly-DL-ornithine-coated 6-well plates (10 μg/mL)(Sigma-Aldrich), in stem cell-permissive medium (5 mg/mL Insulin, 0.1 mM Putrescine, […] Transferrin, 2.10^−8M Progesterone, 50 mg/mL Penicillin-Streptomycin and growth factors including 10 ng/mL basic fibroblast growth factor (bFGF), 20 ng/mL epidermal growth factor (EGF) and B27). One day later, cells were treated with BAL27862 for 72 hours. Then, cells were trypsinized, suspended in Hanks' Balanced Salt Solution (HBSS) buffer (Life technologies) containing blocking solution (Miltenyi Biotec) and incubated with A2B5-APC (clone 105HB29, reference 130-093-582) and CD133-PE (clone 293C3, reference 130-090-853) antibodies (Miltenyi Biotec) for 10 minutes. Cells were then fixed with 10% paraformaldehyde (Sigma-Aldrich) for 20 minutes and analyzed using flow cytometry (FACS Calibur™ BD Biosciences). A total of 100′000 events were counted for each sample and data were recorded with the CellQuest Pro Software (BD Biosciences) and analyzed using FlowJo software (Tree Star Inc., San Carlos, Calif.) and the Dean-Jet-Fox model analysis.

GBM6 CSCs [8] = assay: Transwell cell migration assay; type: cell-based, human
Method: (§3) Stem cells (50′000) were poured on the upper side of a transwell migration chamber ([…] filter, BD) in DMEM. The lower side of the chamber was filled with DMEM, supplemented with 10% FCS. Cells were allowed to transmigrate for 5 hours and then chambers were removed. […] After washing and drying, pictures of six fields per condition were imaged at a magnification of 10× and transmigrated cells were counted.

GBM9 CSCs [9] = assay: Transwell cell migration assay; type: cell-based, human; details: 5 hours transmigration
Method: as §3

[10] = GBM6 GFP sh0 (normal EB1 levels)
[11] = GBM6 GFP shEB1 (EB1 downregulated)

## N#CCCNc1nonc1-c1nc2ccccc2n1CC(=O)c1ccc(NC(=O)[C@@H](N)CCCCN)cc1 [BAL101553]
Orthotopic GBM6 tumors [1]; GBM6 GFP sh0 (EB1-expressing) tumors
  tumor mass (size) and tumor spreading versus vehicle: clear reduction of the tumor mass (size) and in tumor spreading
Orthotopic GBM6 tumors [1]; GBM6 GFP shEB1 (EB1 negative) tumors
  tumor mass (size) and tumor spreading versus vehicle: minimal
Orthotopic GBM6 tumors [2]; EB1 downregulated GBM6 tumors
  proportion of A2B5 positive GBM6 cells: ~80%
Orthotopic GBM6 tumors [2]; EB1 expressing GBM6 tumors
  proportion of A2B5 negative GBM6 cells: 80%
  proportion of A2B5 positive GBM6 cells: 20%

## N#CCCNc1nonc1-c1nc2ccccc2n1CC(=O)c1ccc(N)cc1 [BAL27862, 3-(4-{1-[2-(4-amino-phenyl)-2-oxo-ethyl]-1H-benzoimidazol-2-yl}-furazan-3-ylamino)-propionitrile]
GBM6 CSCs [3]; [10]
  clonogenic capacity (colony formation): impaired the clonogenic capacity of GBM6 CSCs at the sub-toxic doses of 6 and 10 nM in a statistically significant manner
GBM6 CSCs [3]; GBM6 GFP shEB1 (EB1 levels downregulated)
  clonogenic capacity (colony formation): only in the EB1-expressing cells
GBM6 CSCs [4]; Homo sapiens, GBM6, 72 h
  EC50: ~20 nM
GBM6 CSCs [4]
  EC50: 20.8 nM
GBM9 CSCs [5]; Homo sapiens, 72 h
  EC50: ~20 nM
GBM9 CSCs [5]
  EC50: 21.7 nM
GBM6 CSCs [6]; [10]
  sphere formation: interferes statistically significantly with sphere formation
GBM6 CSCs [6]; [11]
  sphere formation: suppresses the inhibitory activity of BAL27862
GBM6 CSCs [6]; GBM6 wild-type
  sphere formation: interferes statistically significantly with sphere formation
GBM6 CSCs [7]; GBM6 GFP sh0 (EB1 expressed)
  A2B5 positive cell number: significant inhibition
GBM6 CSCs [7]; [11]
  A2B5 positive cell number: less sensitive
GBM6 CSCs [8]; EB1 downregulated GBM6 cells (shEB1), 6 nM
  inhibition of cell migration: inhibitory effect of BAL27862 treatment was drastically reduced
GBM6 CSCs [8]; GBM6, cytotoxic 20 nM, 5 hours transmigration
  inhibition of cell migration: drastically inhibited the migration
GBM6 CSCs [8]; GBM6, non-cytotoxic 6 nM, 5 hours transmigration
  inhibition of cell migration: statistically significant inhibition of cell migration
GBM6 CSCs [8]; control EB1-expressing GBM6 cells, 6 nM
  inhibition of cell migration: statistically significant inhibition of cell migration
GBM9 CSCs [9]; GBM9, cytotoxic 20 nM
  inhibition of cell migration: drastically inhibited the migration
GBM9 CSCs [9]; GBM9, non-cytotoxic 6 nM
  inhibition of cell migration: did not respond
